Measurements as given in patent publication US20220015371A1, “Compositions and Methods for Reducing Pesticide-Induced Plant Damage and Improving Plant Yield” (priority 2018, published 2022).

Tests used:
[1] = tested on: glyphosate-tolerant Palmer Amaranth; assay: Palmer Amaranth shoot and root weight, greenhouse conditions; format: in vivo, Amaranthus palmeri; details: two weeks after spraying
Text: To test the effects of the inventive plant treatment product on weed survival in herbicide-tolerant Palmer Amaranth (Amaranthus palmeri) plants, the plant treatment product (Composition C+herbicide) or herbicide component (alone) were applied to weeds, in greenhouse conditions. […] The measurements of dry shoot mass and dry root mass were taken two weeks after spraying.

[2] = tested on: rice of the variety Presidio; assay: Rice crop injury in herbicide application program, field trial; details: visually rated 8 May, 0 = no injury, 100 = complete plant death
Text: (§1) To further evaluate the performance of certain embodiments of the present disclosure, bacterial fermentation product of the present disclosure was applied in a common herbicide application program to test herbicide injury tolerance, weed control, grain yield and milling quality in rice. Experiments were established in a field of Crowley fine sandy loam soil (59% sand, […], 12% clay, 0.7% organic matter and pH 5.3). The field was cropped to rice for every third year for many years and was naturally infested with many weeds. Plots consisted of six 18-ft rows, spaced 7.5-in. between rows. The experiment was conducted as a randomized completed block design with four replications. The trial consisted of six treatments (see Table 12, below).
(§2) Rice of the variety Presidio was drill seeded at 70 lb/acre on 5 Apr. Seeds for treatments 2, 4, 5 and 6 were treated with Composition E at 2.3 oz product/CWT prior to planting. Compositions A and B were applied at 7 oz product/acre on 1 May (postemergence), 2 Jun (panicle differentiation, PD) and 19 Jun (boot), using a CO2 pressurized, hand-held sprayer equipped with a boom of three TeeJet 8002VS nozzles spaced 19-in. apart that traveled at 3 mph and delivered at 29 gal/acre at 40 psi. […]

[3] = tested on: broadleaf signalgrass; assay: Weed control in rice field trial: broadleaf signalgrass; format: in vivo; details: visually rated 8 May
Text: as §1, §2

[4] = tested on: carpet weed; assay: Weed control in rice field trial: carpet weed; format: in vivo; details: visually rated 8 May
Text: as §1, §2

[5] = tested on: yellow nutsedge; assay: Weed control in rice field trial: yellow nutsedge; format: in vivo; details: visually rated 8 May
Text: as §1, §2

[6] = tested on: rice plants; assay: Example 5: rice plants stressed by foliar cyhalofop, field trial; format: in vivo; details: cyhalofop 1500 ml/ha, three days after application (FIG. 12A)
Experimental: (§3) To test the effect of foliar application of an inventive fermentation culture lysate composition on rice plants stressed by foliar application of the chemical herbicide cyhalofop, field trial(s) were conducted. Control fields (FIG. 11, A; FIG. 12A) were treated with herbicide formulation comprising cyhalofop (foliar application at 1500 ml/ha). Test fields (FIG. 11, B; FIG. 12B) were treated with a combination of the herbicide formulation comprising cyhalofop (foliar application at 1500 ml/ha) and fermentation culture lysate Composition B (foliar application at 500 ml/ha).

[7] = tested on: rice seedlings; assay: Example 2: rice seedlings stressed by post-emergence halosulfuron, field trial; format: in vivo; details: halosulfuron post-emergence 1800 ml/ha, Composition E seed treatment 150 ml/100 kg seed where applied (FIGS. 7A, 7B)
Experimental: To test the effect of seed application of an inventive fermentation culture lysate composition on rice seedlings stressed by post-emergence application of the chemical herbicide halosulfuron, various field trial(s) were conducted. Control fields (FIGS. 6A, 7A) were treated with herbicide formulation comprising halosulfuron (post-emergence at 1800 ml/ha). Test fields (FIGS. 6B, 7B) included seedling treated with the herbicide formulation comprising halosulfuron (post-emergence at 1800 ml/ha) from seeds treated with fermentation culture lysate Composition E (seed treatment at 150 ml/100 kg seed) during planting.

[8] = tested on: rice plants; assay: Example 6: rice plants stressed by foliar profoxydim, field trial; format: in vivo; details: profoxydim 750 ml/ha, three days after application (FIG. 14A)
Experimental: To test the effect of foliar application of inventive fermentation culture lysate composition(s) on rice plants stressed by foliar application of the chemical herbicide profoxydim, field trial(s) were conducted. Control fields (FIG. 13, A; FIG. 14A) were treated with herbicide formulation comprising profoxydim (foliar application at 750 ml/ha). Test fields were treated with either (FIG. 13, B; FIG. 14B) a combination of (i) herbicide formulation comprising profoxydim (foliar application at 750 ml/ha) and (ii) fermentation culture lysate Composition B (foliar application at 500 ml/ha) or (FIG. 13, C; FIG. 14C) a combination of (i) herbicide formulation comprising profoxydim (foliar application at 750 ml/ha), (ii) fermentation culture lysate Composition B (foliar application at 500 ml/ha), and (iii) fermentation culture lysate Composition F (foliar application at 500 ml/ha).

[9] = tested on: rice plants; assay: Example 3: rice plants stressed by foliar propanil, field trial; format: in vivo; details: propanil 4000 ml/ha, three days after application (FIG. 9A)
Experimental: as §3, with “propanil,” for “cyhalofop,”, “8,” for “11,”, “9A)” for “12A)”, “propanil” for “cyhalofop”, “4000” for “1500”, “9B)” for “12B)”

[10] = glyphosate 1.27 kg/ha, Composition C 1 liter/ha

**Q.** What does the source list for O=C(O)CNCP(=O)(O)O [Herbicide, glyphosate]?
**A.** Palmer Amaranth root dry weight per plant [1, 10]: 0.768; Palmer Amaranth root fresh weight per plant [1, 10]: 4.70; Palmer Amaranth shoot dry weight per plant [1, 10]: 5.31; Palmer Amaranth shoot fresh weight per plant [1, 10]: 15.0; Palmer Amaranth root dry weight, change vs Untreated Control [1]: −40.9%; Palmer Amaranth root fresh weight, change vs Untreated Control [1]: −51.3%; Palmer Amaranth shoot dry weight, change vs Untreated Control [1]: −7.01%; Palmer Amaranth shoot fresh weight, change vs Untreated Control [1]: −20.6%

**Q.** For CC1(C)CON(Cc2ccccc2Cl)C1=O [clomazone PRE, clomazone], which “Crop injury (%)” value [2] is on record?
**A.** 5.0 d^y %

**Q.** And the “Weed Control (%) Broadleaf signalgrass” value [3]?
**A.** 90 b %

**Q.** What about the “Weed Control (%) Carpet weed” value [4] of the same molecule?
**A.** 0 c %

**Q.** What about the “Weed Control (%) Yellow nutsedge” value [5] of the same molecule?
**A.** 0 b %

**Q.** How did the phytotoxicity symptoms [6] turn out when C[C@@H](Oc1ccc(Oc2ccc(C#N)cc2F)cc1)C(=O)O [cyhalofop] was run?
**A.** showed phytotoxicity symptoms

**Q.** COc1cc(OC)nc(NC(=O)NS(=O)(=O)c2c(C(=O)O)c(Cl)nn2C)n1 [halosulfuron] was tested. Which “bleaching of rice seedlings” value [7] did it give?
**A.** caused bleaching

**Q.** CCCC(=NOCC(C)Oc1ccc(Cl)cc1)C1=C(O)CC(C2CCCSC2)CC1=O (stereo not shown) [profoxydim] was tested. Which phytotoxicity symptoms [8] did it give?
**A.** showed phytotoxicity symptoms

**Q.** CCC(=O)Nc1ccc(Cl)c(Cl)c1 [propanil] was tested. Which phytotoxicity symptoms [9] did it give?
**A.** showed phytotoxicity symptoms
